Entries after “also recorded” stand apart in the source; their conditions may differ.
Key:
Format in all cases: cell-based, human
BRx68-GFP+ cells = experiment: RNA-seq analysis of pools of growing single cell clones; conditions: day 6; NAC 0.3 mM, P4D8 1 μM
Method: RNA-seq analysis. BRx68-GFP+ cells were sorted, with 1 cell per well, using the MoFlo cell sorter (Beckman Coulter). Single cells were cultured in the presence of CTC media containing either 1 μM of P1C2, P4D8, or P1G7, or 0.3 mM of NAC or a combination of 1 μM of P1C2 and 0.3 mM of NAC. Cells cultured in media containing DMSO served as a control. All cells were cultured for either 6 days or 13 days at 37° C., 5% CO2 and 4% O2, and media was changed every 3 days. For both day 6 and day 13 groups, only clones with more than 3 cells at day 6 were harvested and pooled to a maximum of 50 cells. […] Libraries were sequenced on an Illumina NextSeq500 to obtain 75 bp-long single-end reads.
RNA-sequencing reads were trimmed for Nextera and Illumina adapter sequences using Trim Galore under default parameters. Trimmed reads were then mapped to the human genome build GRCh37 from Ensembl (ftp:/][/ftp.ensembl.org/pub/grch37/current/fasta/homo_sapiens/dna/Homo_sapiens.GRCh37.dna_sm.primary_as sembly.fa.gz) using STAR under optimized parameters for single-end sequenced data. Aligned reads were then counted via feature-Counts and piped into DESeq2 for normalization to sequencing depth and downstream analysis. […]

[1] = test system: single CTCs from a patient with breast cancer; experiment: Culture of freshly isolated single CTCs from patients with breast cancer in NAC containing media; conditions: clones dying after 2 weeks in regular media
Method: Patient samples. Ten milliliters of blood was collected from each of a total of 12 patients with breast cancer (stage IV). All experiments were performed following the ethical principles. Informed consents were signed by all patients and/or their legal guardian/s.
Isolation of single CTCs. Single CTCs were detected and retrieved using the negative selection protocol of PIC&RUN assay. Briefly, 7.5 mL of blood was added to each AccuCyte Separation Tube (RareCyte) and tubes were centrifuged twice in a special device to collect buffy coats in 1 mL of CTC media. Buffy coats were stained with a cocktail of immune cell markers (IM) antibodies (CD45, CD14, and CD16) and Cell-Tracker green for 30 min at 37° C. Stained buffy coats were seeded on polyhema coated cyteslides and scanned semi-automatically using RareCyte fluorescence. When a CTC was detected, the Rarecyte ceramic tip needle was operated semi-automatically to pick up the cell of interest in a draw volume of 50 nL to 0.5 μL, and deposit it in a PCR tube contains 50 μL of media. PCR tubes were pulse spun, their contents were moved to a well of a 96-well GravityTRAP ultralow plate (InSphero) and plates were incubated at 37° C., 5% CO2 and 4% 02 for 3 weeks. Media was replaced every 3 to 4 days and cells were checked every week.
NAC rescued the proliferation of freshly isolated CTCs from a patient with breast cancer. […]

[2] = test system: Glutathione (GSH) in BRx68 cells; experiment: Glutathione measurement; conditions: 300 μmol/L NAC
Method: Glutathione measurement. A total of 1×10^6 BRx68 cells were cultured with or without 300 μmol/L NAC for 6 or 13 days. At the end of incubation periods, cells were washed in ice cold PBS, lysed in 5% 5-sulfo-salicylic acid dehydrate by vortexing and repeating cycles of freeze-thaw, then centrifuged at 14,000 rpm for 10 minutes and supernatant was transferred to clean tubes. Glutathione (GSH) was measured using a GSH Colorimetric Detection Kit (Invitrogen) following the manufacturer's instructions.

CC(=O)N[C@@H](CS)C(=O)O [NAC, N-acetyl-L-cysteine]
lipid metabolism pathway enrichment (IPA of differentially expressed genes) compared with control (BRx68-GFP+ cells): enriched | proliferation of freshly isolated patient CTC clone after switch to NAC containing media [1]: rescued a CTC clone; also recorded: recovered and resumed proliferation | total GSH level in NAC treated cells vs untreated control cells ([2]; day 6): 44.42±5.165 | total GSH level in NAC treated cells vs untreated control cells ([2]; day 13): not at day 13
